Laboratory results as given in patent US20110218188A1, “SUBSTITUTED (PYRIDYL)-AZINYLAMINE DERIVATIVES AS FUNGICIDES” (priority 2008, published 2011).
Marks after values point to notes of the source that are not given here.

Assay: Measurement of logP values by HPLC on reversed phase columns (EEC directive 79/831 Annex V.A8)
Assay type: physicochemical

SMILES | logP (pH 2.7) | further results
CN(C)C(=O)c1cc(-c2ncnc(Nc3cccc(OC(F)(F)F)c3)n2)ccn1 [Example B266] | 2.7 | –
CN(CCC#N)C(=S)c1cc(-c2ncnc(Nc3ccc(F)c(C(F)F)c3)n2)ccn1 [Example B340] | 2.82 | –
CCC(=O)c1cc(-c2ncnc(Nc3cccc(Cl)c3)n2)ccn1 [Example B45] | 3.79 | –
CCN(CCO)C(=O)c1cc(-c2ncnc(Nc3cccc(Cl)c3)n2)ccn1 [Example B164] | 2.25 | –
CON(C)C(=O)c1cc(-c2ncnc(Nc3cccc(C(F)F)c3)n2)ccn1 [B412] | 2.34 | –
CC1CC(C)CN(C(=O)c2cc(-c3ncnc(Nc4cccc(Cl)c4)n3)ccn2)C1 (stereo not drawn) [Example B155] | 3.96 | –
Cc1ccc(Nc2ncnc(-c3ccnc(C(=O)NC4CC4)c3)n2)cc1Cl [Example B226] | 3.62 | –
CCCCCNC(=O)c1cc(-c2ncnc(Nc3cccc(Cl)c3)n2)ccn1 [B67] | 4.35 | –
C=CCON=C(CC)c1cc(-c2ncnc(Nc3cccc(Cl)c3)n2)ccn1 (mixture of isomers) [Example B41] | 5.14 | –
CN(C)C(=O)c1cc(-c2ncnc(Nc3cc(F)ccc3F)n2)ccn1 [Example B354] | 2.1 | –
CCN(C)C(=O)c1cc(-c2ncnc(Nc3cccc(F)c3)n2)ccn1 [Example B7] | 2.4 | –
COCC(C)NC(=O)c1cc(-c2ncnc(Nc3ccc(F)c(Cl)c3)n2)ccn1 (stereo not drawn) [B191] | 3.48 | –
O=C(NC1CC1)c1cc(-c2ncnc(Nc3cccc(Cl)c3)n2)ccn1 [Example B57] | 3.05 | –
O=C(NC1COC1)c1cc(-c2ncnc(Nc3cccc(Cl)c3)n2)ccn1 [B112] | 2.6 | –
CCNC(=O)c1cc(-c2ncnc(Nc3cccc(Cl)c3)n2)ccn1 [B92] | 3.17 | –
CC(C)N(C)C(=O)c1cc(-c2ncnc(Nc3cccc(C#N)c3)n2)ccn1 [Example B296] | 2.37 | –
CC(=NOCC(C)C)c1cc(-c2ncnc(Nc3cccc(Cl)c3)n2)ccn1 (mixture of isomers) [B44] | 5.63 | –
CCN(CC)C(=O)c1cccc(-c2ccnc(Nc3ccnc(Cl)c3)n2)n1 [Example A33] | 2.6 | –
CCN(CC)C(=O)c1cc(-c2ncnc(Nc3cccc(OC)c3)n2)ccn1 [Example B273] | 2.59 | –
CC(C)CN(C)C(=O)c1cc(-c2ncnc(Nc3ccncc3)n2)ccn1 [Example C18] | 1.19 | –
CN(C)C(=O)c1cc(-c2ncnc(Nc3cccc(C(F)F)c3)n2)ccn1 [Example B288] | 2.17 | –

SMILES | logP (pH 2.7) | further results
CC(=O)c1cc(-c2ncnc(Nc3cccc(Cl)c3)n2)ccn1 [Example B26, 1-(4-{4-[(3-chlorophenyl)amino]-1,3,5-triazin-2-yl}pyridin-2-yl)ethanone] | – | chromatographic logP (pH 2.7): 3.32
COC(=O)c1cc(-c2ncnc(Nc3ccc(OC)c(F)c3)n2)ccn1 [B418] | 2.37 | –
CN(C)C(=O)c1cc(-c2ncnc(Nc3ccc(F)cc3)n2)ccn1 [Example B18] | 2.02 | –
COCCN(C)C(=O)c1cc(-c2ncnc(Nc3cccc(OC(F)(F)F)c3)n2)ccn1 [Example B270] | 2.86 | –
COCCN(C)C(=O)c1cc(-c2ncnc(Nc3cccc(COC)c3)n2)ccn1 [Example B247] | 2.05 | –
CN(CCC#N)C(=O)c1cc(-c2ncnc(Nc3cccc(C(F)(F)F)c3)n2)ccn1 [Example B363] | 2.68 | –
O=C(c1cc(Nc2nccc(-c3ccnc(C(=O)N4CC=CCC4)c3)n2)ccn1)N1CC=CCC1 [Example A3] | 1.6 | –
CCCN(CCC)C(=O)c1cc(Nc2nccc(-c3ccnc(C(=O)N(CCC)CCC)c3)n2)ccn1 [Example A12] | 2.54 | –
O=C(NC1CCS(=O)(=O)C1)c1cc(-c2ncnc(Nc3cccc(Cl)c3)n2)ccn1 (stereo not drawn) [B101] | 2.66 | –
CCCN(C)C(=O)c1cc(-c2ccnc(Nc3ccnc(Cl)c3)n2)ccn1 [Example A13] | 2.2 | –
CC(C)CC(=O)O/N=C(/N)c1cc(-c2ncnc(Nc3cccc(Cl)c3)n2)ccn1 [Example B110] | 4.12 | –
NC(=S)c1cc(-c2ncnc(Nc3ccc(F)cc3)n2)ccn1 [B322] | 2.47 | –
CCN(CC)C(=S)c1cc(-c2ncnc(Nc3ccc(F)c(C(F)F)c3)n2)ccn1 [Example B327] | 3.37 | –
O=C(O)c1cc(-c2ncnc(Nc3cccc(C(F)F)c3)n2)ccn1 [B407] | 1.98 | –
C#CCN(CC)C(=O)c1cc(-c2ncnc(Nc3cccc(C(F)F)c3)n2)ccn1 [B420] | 2.86 | –
CN(CCC#N)C(=O)c1cc(-c2ncnc(Nc3ccc(F)cc3)n2)ccn1 [Example B14] | 2.14 | –
COc1ccc(Nc2ncnc(-c3ccnc(C(=O)N4CCCCC4)c3)n2)cn1 [Example C2, (4-{4-[(6-methoxypyridin-3-yl)amino]-1,3,5-triazin-2-yl}pyridin-2-yl)(piperidin-1-yl)methanone] | – | chromatographic logP (pH 7.8): 2.14
COC(=O)NN=C(C)c1cc(-c2ncnc(Nc3cccc(Cl)c3)n2)ccn1 [B83] | 2.86 | –
CN(CCC#N)C(=O)c1cc(-c2ccnc(Nc3ccnc(Cl)c3)n2)ccn1 [Example A24] | 1.78 | –
CN(CCO)C(=O)c1cc(-c2ncnc(Nc3cccc(Cl)c3)n2)ccn1 [Example B136] | 2.04 | –
CC(C)CN(C)C(=O)c1cc(-c2ncnc(Nc3cccc(C(F)(F)F)c3)n2)ccn1 [Example B362] | 3.58 | –

SMILES | logP (pH 2.7) | further results
CC(C)CN(C)C(=O)c1cc(-c2ncnc(Nc3cccc(Cl)c3)n2)ccn1 [Example B151] | 3.42 | –
Cc1ccc(Nc2ncnc(-c3ccnc(C(=O)N4CCCC4)c3)n2)cc1Cl [B224] | 3.26 | –
CCN(C)C(=O)c1cc(-c2ccnc(Nc3ccnc(C(F)(F)F)c3)n2)ccn1 [Example A18] | 2.22 | –
COCCN(C)C(=O)c1cc(-c2ncnc(Nc3cccc(OC)c3)n2)ccn1 [Example B280] | 2.14 | –
CN(C)C(=O)c1cccc(-c2ccnc(Nc3ccnc(Cl)c3)n2)n1 [Example A34] | – | logP (pH 2.3): 1.96^[b]
CCN(C)C(=S)c1cc(-c2ncnc(N(C(C)=O)c3cccc(F)c3)n2)ccn1 [Example B339] | 2.73 | –
CCCN(C)C(=O)c1cc(Nc2nccc(-c3ccnc(C(=O)N(C)CCC)c3)n2)ccn1 [Example A14] | 1.59 | –
CCN(C)C(=S)c1cc(-c2ncnc(Nc3cccc(S(F)(F)(F)(F)F)c3)n2)ccn1 [Example B253, N-ethyl-N-methyl-4-(4-{[3-(pentafluoro-lambda^6-sulfanyl)phenyl]amino}-1,3,5-triazin-2-yl)pyridine-2-carbothioamide] | – | chromatographic logP (pH 2.7): 3.57
CCN(C)C(=O)c1cc(-c2ncnc(Nc3cccc(SC)c3)n2)ccn1 [Example B222] | 2.6 | –
CCCCN(CCCC)C(=O)c1cc(-c2ncnc(Nc3cccc(Cl)c3)n2)ccn1 [B175] | 4.75 | –
CCOC(=O)CNN=C(C)c1cc(-c2ncnc(Nc3cccc(Cl)c3)n2)ccn1 [Example B77] | 3.02 | –
CSc1cccc(Nc2ncnc(-c3ccnc(C(=O)NC4CCC4)c3)n2)c1 [B220] | 3.73 | –
CCCN(C(=O)c1cc(-c2ncnc(Nc3cccc(Cl)c3)n2)ccn1)C(C)CC (stereo not drawn) [Example B171] | 4.13 | –
O=C(c1cc(-c2ncnc(Nc3cccc(Cl)c3)n2)ccn1)N1CCCC1 [Example B28] | 2.88 | –
CCN(C)C(=S)c1cc(-c2ncnc(Nc3cccc(C(F)F)c3)n2)ccn1 [Example B341] | 2.94 | –
CCCCCN(C)C(=O)c1cc(-c2ncnc(Nc3cccc(Cl)c3)n2)ccn1 [Example B161] | 3.89 | –
CCCC(C)NC(=O)c1cc(-c2ncnc(Nc3ccc(C)c(Cl)c3)n2)ccn1 (stereo not drawn) [B235] | 5 | –
CC(C)N(C)C(=O)c1cc(-c2ncnc(Nc3ccc(Cl)c(C(F)F)c3)n2)ccn1 [Example B391] | 3.15 | –
CC(=O)Nc1cccc(Nc2ncnc(-c3ccnc(C(=O)N(C)CC4CC4)c3)n2)c1 [B306] | 1.94 | –
CCCCN(C)C(=O)c1cc(-c2ncnc(Nc3cccc(Cl)c3)n2)ccn1 [Example B123] | 3.48 | –
COc1cccc(Nc2ncnc(-c3ccnc(C(=O)N(C)CC(C)C)c3)n2)c1 [Example B277] | 2.90 | –

SMILES | logP (pH 2.7) | further results
CCCN(C)C(=O)c1cc(-c2ncnc(Nc3ccc(C)c(Cl)c3)n2)ccn1 [Example B374] | 3.42 | –
CCC(C)NC(=O)c1cc(-c2ncnc(Nc3ccc(F)c(Cl)c3)n2)ccn1 (stereo not drawn) [Example B197] | 4.16 | –
CN(C)C(=O)c1cc(-c2ncnc(Nc3ccc(Cl)c(C(F)F)c3)n2)ccn1 [Example B385] | 2.59 | –
C=CCN(CC=C)C(=O)c1cc(-c2ncnc(Nc3cccc(Cl)c3)n2)ccn1 [Example B143] | 3.67 | –
CN(CC(F)F)C(=O)c1cc(-c2ncnc(Nc3ccc(Cl)c(C(F)F)c3)n2)ccn1 [Example B392] | 3.19 | –
CCC(=NOCc1ccc(OC)cc1)c1cc(-c2ncnc(Nc3cccc(Cl)c3)n2)ccn1 (mixture of isomers) [B68] | 5.46 | –
CC(C)(C)NC(=O)c1cc(-c2ncnc(Nc3cccc(Cl)c3)n2)ccn1 [B98] | 4.39 | –
CCN(CC)C(=S)c1cc(-c2ncnc(Nc3cccc(C(F)F)c3)n2)ccn1 [Example B328] | 3.27 | –
COCCN(C)C(=O)c1cc(-c2ncnc(Nc3cccc(Cl)c3)n2)ccn1 [Example B172] | 2.57 | –
CCCN(CCO)C(=O)c1cc(-c2ncnc(Nc3cccc(Cl)c3)n2)ccn1 [Example B181] | – | logP [b] (pH 2.3): 2.51[b]
CCON(C)C(=O)c1cc(-c2ncnc(Nc3ccsc3)n2)ccn1 [Example C33] | 2.26 | –
CC(C)N(C)C(=O)c1cc(-c2ncnc(Nc3ccc(F)cc3)n2)ccn1 [Example B21] | 2.55 | –
O=C(NCCCN1CCCCCC1=O)c1cc(-c2ncnc(Nc3ccc(F)c(Cl)c3)n2)ccn1 [Example B194] | 3.19 | –
COCC(COC)NC(=O)c1cc(-c2ncnc(Nc3cccc(Cl)c3)n2)ccn1 [B86] | 3.39 | –
CCN(C)C(=O)c1cc(-c2ncnc(Nc3cccc(OC(F)F)c3)n2)ccn1 [B409] | 2.57 | –
CN(CC1CC1)C(=O)c1cc(-c2ncnc(Nc3ccsc3)n2)ccn1 [Example C15] | 2.53 | –
COCC(C1CC1)N(C)C(=O)c1cc(-c2ncnc(Nc3ccc(F)c(Cl)c3)n2)ccn1 (stereo not drawn) [B210] | 3.33 | –
COCCCNC(=O)c1cc(-c2ncnc(Nc3cccc(Cl)c3)n2)ccn1 [B88] | 3.15 | –
